Converted amounts (≈) assume the structure as drawn. The source made the active and inactive calls. The calls are words filed in the database; no cut-off is given here.
Assays:
[1] = system: Staphylococcus aureus; assay: Antibacterial activity against methicillin-resistant Staphylococcus aureus ATCC 43300 infected in sepsis mouse model assessed as reduction in number of surviving bacterial colonies in kidney at 10 mg/kg pre-infected with bacteria for 1 hrs followed by continuous compound administration at 12 hrs intervals for 2 days relative to control; format: functional; settings: time 2 day
[2] = system: Staphylococcus aureus; assay: Antibacterial activity against methicillin-resistant Staphylococcus aureus ATCC 43300; format: functional
[3] = system: Staphylococcus aureus; assay: Antibacterial activity against methicillin-resistant Staphylococcus aureus ATCC 43300 infected in sepsis mouse model assessed as reduction in bacterial load in spleen at 10 mg/kg pre-infected with bacteria for 1 hrs followed by continuous compound administration at 12 hrs intervals for 2 days (reference value: 7.45 log10CFU/g); format: functional; settings: time 2 day
[4] = system: Staphylococcus aureus; assay: Bactericidal activity against methicillin-resistant Staphylococcus aureus ATCC 43300 in presence of 50% human blood by Mueller Hinton broth based assay; format: functional; settings: ATCC 43300, Blood, time <= 6 hrs
[5] = system: Cell membrane; assay: Disruption of cell membrane in methicillin-resistant Staphylococcus aureus ATCC 43300 assessed as appearance of broken surface by scanning electron microscopic analysis; format: cell membranes
[6] = Hemolytic activity in sheep RBC; format: toxicity, cell-based, Ovis aries, Erythrocyte; settings: sheep red blood cells (erythrocytes)
[7] = system: Cell membrane; assay: Induction of cytoplasmic membrane depolarization in methicillin-resistant Staphylococcus aureus ATCC 43300 assessed as increase in fluorescence intensity at 2 microg/ml by DiSC3(5) dye-based fluorescence assay; format: cell membranes; settings: dose 2.0 µg/ml
[8] = system: Staphylococcus aureus; assay: Antibacterial activity against methicillin-resistant Staphylococcus aureus ATCC 43300 infected in sepsis mouse model assessed as reduction in number of surviving bacterial colonies in blood at 5 mg/kg pre-infected with bacteria for 1 hrs followed by continuous compound administration at 12 hrs intervals for 2 days relative to control; format: functional; settings: time 2 day
[9] = system: Staphylococcus aureus; assay: Antibacterial activity against methicillin-resistant Staphylococcus aureus ATCC 43300 infected in sepsis mouse model assessed as decrease in TNF-alpha level in blood at 5 to 10 mg/kg pre-infected with bacteria for 1 hrs followed by continuous compound administration at 12 hrs intervals for 2 days; format: functional, organism-based; settings: dose 5-10 mg/kg, time 2.0 day
[10] = system: Staphylococcus aureus; assay: Antibacterial activity against methicillin-resistant Staphylococcus aureus ATCC 43300 infected in sepsis mouse model assessed as reduction in bacterial load in blood at 5 mg/kg pre-infected with bacteria for 1 hrs followed by continuous compound administration at 12 hrs intervals for 2 days (reference value: 3.69 log10CFU/ml); format: functional; settings: time 2 day
[11] = system: Cell membrane; assay: Disruption of cell membrane integrity in methicillin-resistant Staphylococcus aureus ATCC 43300 assessed as appearance of red fluorescence by DAPI/PI staning based microscopic analysis; format: cell membranes
[12] = system: Staphylococcus aureus; assay: Bactericidal activity against methicillin-resistant Staphylococcus aureus ATCC 43300 assessed as bacterial killing at 16 microg/ml measured after 8 hrs by time-kill kinetics analysis relative to control; format: functional; settings: dose 16 µg/ml
[13] = system: Enterococcus faecalis; assay: Antibacterial activity against vancomycin-susceptible Enterococcus faecalis ATCC 29212; format: functional
[14] = system: Staphylococcus aureus; assay: Bacteriostatic activity against methicillin-resistant Staphylococcus aureus ATCC 43300 assessed as inhibition of bacterial growth at 2 times of MIC measured after 24 hrs by time-kill kinetic analysis; format: functional, organism-based
[15] = system: Staphylococcus aureus; assay: Antibacterial activity against penicillin-resistant Staphylococcus aureus ATCC 31007; format: functional
[16] = system: Staphylococcus aureus; assay: Bactericidal activity against methicillin-resistant Staphylococcus aureus ATCC 43300 in presence of 50% human plasma by Mueller Hinton broth based assay; format: functional
[17] = system: Staphylococcus aureus; assay: Antibacterial activity against methicillin-resistant Staphylococcus aureus ATCC 43300 infected in sepsis mouse model assessed as reduction in bacterial load in kidney at 10 mg/kg pre-infected with bacteria for 1 hrs followed by continuous compound administration at 12 hrs intervals for 2 days (reference value: 6.75 log10CFU/g); format: functional; settings: time 2 day
[18] = system: Bacillus subtilis; assay: Antibacterial activity against penicillin-susceptible Bacillus subtilis ATCC 9372; format: functional
[19] = system: Staphylococcus aureus; assay: Antibacterial activity against methicillin-resistant Staphylococcus aureus ATCC 43300 infected in sepsis mouse model assessed as reduction in number of surviving bacterial colonies in blood at 10 mg/kg pre-infected with bacteria for 1 hrs followed by continuous compound administration at 12 hrs intervals for 2 days relative to control; format: functional; settings: time 2 day
[20] = system: Staphylococcus aureus; assay: Bactericidal activity against methicillin-resistant Staphylococcus aureus ATCC 43300 assessed as bacterial killing at 16 microg/ml measured after 4 hrs by time-kill kinetics analysis relative to control; format: functional; settings: dose 16 µg/ml
[21] = system: Cell membrane; assay: Induction of cytoplasmic membrane depolarization in methicillin-resistant Staphylococcus aureus ATCC 43300 assessed as fold increase in fluorescence intensity at 16 microg/ml measured within 20 min by DiSC3(5) dye-based fluorescence assay; format: cell membranes; settings: dose 16.0 µg/ml
[22] = Selectivity index, ratio of HC50 for hemolytic activity in sheep RBC to MIC for antibacterial activity against methicillin-resistant Staphylococcus aureus ATCC 43300; format: toxicity; settings: sheep red blood cells (erythrocytes), read-out: Selectivity Index
[23] = system: Staphylococcus aureus; assay: Antibacterial activity against erythromycin-susceptible Staphylococcus aureus ATCC 25923; format: functional
[24] = system: Staphylococcus aureus; assay: Antibacterial activity against methicillin-resistant Staphylococcus aureus ATCC 43300 infected in sepsis mouse model assessed as reduction in number of surviving bacterial colonies in spleen at 10 mg/kg pre-infected with bacteria for 1 hrs followed by continuous compound administration at 12 hrs intervals for 2 days relative to control; format: functional; settings: time 2 day
[25] = system: Staphylococcus aureus; assay: Antibacterial activity against methicillin-resistant Staphylococcus aureus ATCC 43300 infected in sepsis mouse model assessed as reduction in number of surviving bacterial colonies in spleen at 5 mg/kg pre-infected with bacteria for 1 hrs followed by continuous compound administration at 12 hrs intervals for 2 days relative to control; format: functional; settings: time 2 day
[26] = system: Staphylococcus epidermidis; assay: Antibacterial activity erythromycin-susceptible Staphylococcus epidermidis ATCC 12228; format: functional
[27] = system: Staphylococcus aureus; assay: Inhibition of biofilm formation in methicillin-resistant Staphylococcus aureus ATCC 43300 at 8 microg/ml relative to control; format: functional
[28] = system: Staphylococcus aureus; assay: Bactericidal activity against methicillin-resistant Staphylococcus aureus ATCC 43300 assessed as reduction in bacterial growth; format: functional, organism-based
[29] = system: Staphylococcus aureus; assay: Inhibition of biofilm formation in methicillin-resistant Staphylococcus aureus ATCC 43300 at 16 microg/ml relative to control; format: functional
[30] = system: Staphylococcus aureus; assay: Antibacterial activity against methicillin-resistant Staphylococcus aureus ATCC 43300 infected in sepsis mouse model assessed as decrease in IL-6 level in blood at 5 to 10 mg/kg pre-infected with bacteria for 1 hrs followed by continuous compound administration at 12 hrs intervals for 2 days; format: functional, organism-based; settings: dose 5-10 mg/kg, time 2.0 day
[31] = system: Cell membrane; assay: Induction of cell membrane disruption in methicillin-resistant Staphylococcus aureus ATCC 43300 assessed as increase in protein leakage; format: cell membranes
[32] = system: Cell membrane; assay: Disruption of cell membrane in methicilin-resistant Staphylococcus aureus ATCC 43300 assessed as appearance of collapsed cell membrane by scanning electron microscopic analysis; format: cell membranes
[33] = system: Staphylococcus aureus; assay: Bactericidal activity against methicillin-resistant Staphylococcus aureus ATCC 43300 in presence of 50% human serum by Mueller Hinton broth based assay; format: functional
[34] = system: Cell membrane; assay: Induction of cytoplasmic membrane permeabilization in methicillin-resistant Staphylococcus aureus ATCC 43300 assessed as increase fluorescence intensity at 16 microg/ml by PI staining based fluorescence analysis; format: cell membranes; settings: dose 16.0 µg/ml

Structure (SMILES): CCCCN(CCCC)CCCNCCCOc1c(C(C)=O)ccc2c1C=CC(C)(CCC=C(C)C)O2 (centres undefined)
- Activity [1]: 99.9%
- MIC [2]: 2 µg/mL (≈ 3.9 µM)
- Activity [3]: 2.24 log10CFU/g
- MBC [4]: 32 µg/mL
- Activity [5]: Active
- HC50 [6]: 131 µg/mL
- Activity [7]: inactive
- Activity [8]: 91.8%
- Activity [9]: Active
- Activity [10]: 1.1 log10CFU/ml
- Activity [11]: Active
- Activity [12]: 100%
- MIC [13]: 4 µg/mL (≈ 7.8 µM)
- Activity [14]: Active
- MIC [15]: 4 µg/mL (≈ 7.8 µM)
- MBC [16]: 16 µg/mL
- Activity [17]: 2.84 log10CFU/g
- MIC [18]: 2 µg/mL (≈ 3.9 µM)
- Activity [19]: 95.9%
- Activity [20]: >=99.9%
- fold change (FC) [21]: 15
- selectivity ratio [22]: 65.6
- MIC [23]: 2 µg/mL (≈ 3.9 µM)
- Activity [24]: 99.4%
- Activity [25]: 99%
- MIC [26]: 1 µg/mL (≈ 1.95 µM)
- inhibition at 8 µg/mL [27]: 37.2%
- Activity [28]: Dose-Dependent Effect
- inhibition at 16 µg/mL [29]: > 92%
- Activity [30]: Active
- Activity [31]: Active
- Activity [32]: Active
- MBC [33]: 16 µg/mL
- Activity [34]: Active
